Data on 2 compounds can be found in US20130131156A1, “Cancer Treatment with Wortmannin Analogs” (ONCOTHYREON INC., priority 2010, published 2013).

Structures are written as SMILES.

One data set deals with PIK3CA (p110α) (Homo sapiens, UniProt P42336). The data set can be described thus: PI-3K isoform inhibition, p110α (PIK3CA); the text calls it cell based. Particulars: cell proliferation assays versus p110α and p110β isoforms. An excerpt:
PX-866 is an pan-isoform inhibitor of Class I P1-3K that covalently binds to ATP binding site of the p110 catalytic subunit.

A short description of data set [1]: Phase I trial of oral PX-866: clinical pharmacokinetics. In kind it is in vivo, human.
The test system of the next data set is p-AKT/T-AKT. The data set can be described thus: Clinical pharmacodynamics: p-AKT/T-AKT after a single oral dose. The data set is classed as in vivo, human. Particulars: 3 of 4 patients, 8 mg dose level, 4 hours after a single oral dose.
Data set [2] is described as follows: Phase I trial of oral PX-866: safety, DLT and MTD. The data set is classed as in vivo, human. Particulars: for Maximal Tolerated Dose (MTD): oral. The procedure:
(§1) This was an Open-label dose escalation study with expansion cohort at Maximal Tolerated Dose (MTD), 3+3 design and to test efficacy of 2 dosing schedules (intermittent and continuous). PX-866 was administered as an oral dose.
The primary and secondary objectives were tested using two different dosing regimens: 10 days of drug administration and daily administration for 28 days.
Intermittent schedule: 10 dose levels tested (0.5-16 mg). The starting dose level was 0.5 mg. Doses increased as follows: 100% escalation up to 2 mg, 50% escalation up to 4.5 mg, and approximately 30% escalation until the MTD is identified. The highest dose level at which no more than 1/6 patients experiences DLT was declared the MTD. The resulting dose levels were: 0.5, 1, 2, 3, 4.5, 6, 8, 10, 12 and 16 mg.
FIG. 1 illustrates the dosing schedule for intermittent dosing where PX-866 was given to patients on days 1-5 and 8-12 of a 28-day cycle.
Continuous dosing schedule: The starting dose was two dose levels below the MTD of intermittent dosing (8 mg) and subsequent dose levels was one or two dose levels (10 mg or 8 mg) below the MTD of intermittent dosing dependent on recommendation of the dose cohort review committee. FIG. 1 illustrates the dosing schedule for continuous dosing.

The test system of another data set is PI-3K pathway. The data set can be described thus: Clinical pharmacodynamics: PBMCs stimulated ex vivo, FACS based assay (p-mTOR, p-S6). The data set is classed as in vivo, human. Particulars: PBMCs of treated patients stimulated ex vivo. The procedure:
The pharmacodynamic effects of PX-866 in patients treated in the phase I single agent study were assessed using isolated peripheral blood mononuclear cells (PBMCs) stimulated ex vivo via FACS based assay. […] The study provided Evidence for pathway inhibition lasting up to 3 days post-treatment.

Another data set relates to advanced solid tumors. The data set can be described thus: Phase I trial of oral PX-866: tumor response by RECIST. Particulars: 1 to 7 prior treatments, median 4 prior systemic regimens. The data set is classed as in vivo, human. The procedure:
as §1
Patient response was evaluated according to Response Evaluation Criteria in Solid Tumors (RECIST). Briefly, all measurable lesions up to a maximum of five lesions, representative of all involved organs were identified as target lesions and recorded and measured at baseline. Target lesions were selected on the basis of their size (lesions with the longest diameter) and their suitability for accurate repeated measurements (either by imaging techniques or clinically). A sum of the longest diameter (LD) for all target lesions was calculated and reported as the baseline sum LD. The baseline sum LD was used as reference by which to characterize the objective tumor. All other lesions (or sites of disease) were identified as non-target lesions and were also be recorded at baseline. Measurements of these lesions were not required, but the presence or absence of each was noted throughout follow-up.
A Complete Response (CR) indicated a disappearance of all target lesions.

PIK3CA (p110α), sequence (P42336 whole entry, canonical isoform): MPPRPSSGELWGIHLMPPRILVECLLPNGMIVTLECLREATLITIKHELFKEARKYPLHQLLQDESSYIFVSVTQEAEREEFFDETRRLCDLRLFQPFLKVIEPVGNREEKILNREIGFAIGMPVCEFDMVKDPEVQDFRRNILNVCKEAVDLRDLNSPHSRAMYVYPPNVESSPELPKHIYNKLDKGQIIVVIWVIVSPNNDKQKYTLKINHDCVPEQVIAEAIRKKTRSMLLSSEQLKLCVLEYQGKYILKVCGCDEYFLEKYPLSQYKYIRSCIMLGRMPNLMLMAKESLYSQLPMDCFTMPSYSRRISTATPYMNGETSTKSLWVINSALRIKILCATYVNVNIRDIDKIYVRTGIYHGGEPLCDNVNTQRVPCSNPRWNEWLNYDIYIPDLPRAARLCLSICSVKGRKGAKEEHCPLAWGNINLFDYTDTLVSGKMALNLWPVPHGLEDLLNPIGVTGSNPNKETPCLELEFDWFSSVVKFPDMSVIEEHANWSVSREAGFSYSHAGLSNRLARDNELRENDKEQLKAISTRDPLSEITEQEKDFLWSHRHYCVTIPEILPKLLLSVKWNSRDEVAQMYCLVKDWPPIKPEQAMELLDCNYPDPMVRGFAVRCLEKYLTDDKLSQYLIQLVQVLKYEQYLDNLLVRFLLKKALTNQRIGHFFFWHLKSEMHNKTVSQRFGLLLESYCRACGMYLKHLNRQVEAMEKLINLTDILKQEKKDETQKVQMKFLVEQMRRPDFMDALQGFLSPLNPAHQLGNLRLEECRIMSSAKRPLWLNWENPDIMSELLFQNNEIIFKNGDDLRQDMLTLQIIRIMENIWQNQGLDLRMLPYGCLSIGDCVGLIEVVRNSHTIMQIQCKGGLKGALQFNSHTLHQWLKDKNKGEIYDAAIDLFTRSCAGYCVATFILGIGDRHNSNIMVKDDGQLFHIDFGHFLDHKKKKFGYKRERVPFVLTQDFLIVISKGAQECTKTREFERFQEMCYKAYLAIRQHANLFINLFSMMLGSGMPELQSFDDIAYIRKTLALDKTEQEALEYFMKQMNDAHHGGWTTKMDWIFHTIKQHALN
PIK3CA (p110α), sequence (P27986 whole entry partner, canonical isoform): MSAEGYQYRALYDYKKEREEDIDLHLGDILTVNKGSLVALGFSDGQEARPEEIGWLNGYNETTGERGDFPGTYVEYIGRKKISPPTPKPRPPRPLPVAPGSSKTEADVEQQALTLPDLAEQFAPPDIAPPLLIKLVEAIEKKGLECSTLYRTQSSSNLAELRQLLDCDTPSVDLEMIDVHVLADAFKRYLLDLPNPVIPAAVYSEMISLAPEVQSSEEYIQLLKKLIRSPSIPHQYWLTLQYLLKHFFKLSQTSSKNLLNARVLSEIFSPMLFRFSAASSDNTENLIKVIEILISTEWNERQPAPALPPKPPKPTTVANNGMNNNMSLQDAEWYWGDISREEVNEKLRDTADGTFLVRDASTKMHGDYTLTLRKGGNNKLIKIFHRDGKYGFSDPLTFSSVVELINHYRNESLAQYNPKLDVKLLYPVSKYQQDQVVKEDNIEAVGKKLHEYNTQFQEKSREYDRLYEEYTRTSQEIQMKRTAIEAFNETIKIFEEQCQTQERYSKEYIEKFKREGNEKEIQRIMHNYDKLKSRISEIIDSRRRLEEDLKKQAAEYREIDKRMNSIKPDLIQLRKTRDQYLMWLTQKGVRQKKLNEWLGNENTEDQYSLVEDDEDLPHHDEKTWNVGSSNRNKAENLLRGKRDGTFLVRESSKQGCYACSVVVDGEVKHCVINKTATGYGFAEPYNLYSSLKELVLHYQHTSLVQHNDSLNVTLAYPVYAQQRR

For the compound `C=CCN(C=C1C(=O)OC(COC)C2(C)C1=C(O)C(=O)C1=C2C(OC(C)=O)CC2(C)C(O)CCC12)CC=C` (stereo not shown) [17-OH PX-866], the “increase in potency versus the parent PX-866” value at PIK3CA (p110α) is 2-5 fold. For the same compound, the “AUC in humans compared with mice” value in data set [1] (due to an increase in mean residence time in humans) is “exceeded AUC in mice”.
Take `C=CCN(/C=C1/C(=O)O[C@H](COC)[C@@]2(C)C1=C(O)C(=O)C1=C2[C@H](OC(C)=O)C[C@]2(C)C(=O)CC[C@@H]12)CC=C` [PX-866, Acetic acid 4-diallylaminomethylene-6-hydroxy-1-α-methoxymethyl-10β,13β-dimethyl-3,7,17-trioxo-1,3,4,7,10,11β,12,13,14α,15,16,17-dodecahydro-2-oxa-cyclopenta[α]phenanthren-11-yl ester]: the “decrease in p-AKT/T-AKT” value with p-AKT/T-AKT was not below 60%. Besides, the “Maximal Tolerated Dose (MTD)” value is recorded as 8 mg per day in data set [2] (continuous daily dosing); 12 mg per day in data set [2] (intermittent dosing, days 1-5 and 8-12 of a 28-day cycle). Besides, the ALT/AST result in data set [2] (continuous dosing) is “ALT/AST elevation was observed”. In addition, the “Most common adverse events” value in data set [2] (continuous dosing) is “diarrhea, nausea, vomiting, headache and fatigue”; in data set [2] (intermittent dosing) it was “diarrhea, nausea, vomiting, and constipation”. Moreover, the “Related Grade 3 events” value in data set [2] (continuous dosing section) is “vomiting (n=3), diarrhea (n=3), liver enzyme elevation (n=2) dehydration (n=1), worsened hypertension (n=1)”; in data set [2] (intermittent dosing) it was “vomiting (n=3), diarrhea (n=3), liver enzyme elevation (n=2) dehydration (n=1), and worsened hypertension (n=1)”. The “Dose limiting toxicity (DLT), patients affected” value in data set [2] (continuous dosing, 10 mg per day, Grade 3 diarrhea (n=2)) is 2/3; in data set [2] (intermittent dosing, 16 mg per day, Grade 3 diarrhea (n=1), Grade 3 AST (n=1)), 2/5. Besides, the “toxicity in patients receiving >2 cycles” value in data set [2] (printed in the continuous dosing section but worded intermittent dosing schedule) is on record as “No significant increase in toxicity”. Also, in the data set with PI-3K pathway, the “effect on the PI-3K pathway (p-mTOR, p-S6)” value was “inhibition of the PI-3K pathway”. In addition, the “plasma level of parent PX-866” value in data set [1] (after oral PX-866, with rare exceptions) is “below the limits of detection”. In addition, in the data set with advanced solid tumors, the “effect on disease in prior treated patients” value is “stabilized disease”.
